Holding throughout (assay type): functional
Experiment [1] addresses T1, Mitogen-activated protein kinase (Plasmodium falciparum, UniProt Q25917).
T1 sequence (Q25917 whole entry): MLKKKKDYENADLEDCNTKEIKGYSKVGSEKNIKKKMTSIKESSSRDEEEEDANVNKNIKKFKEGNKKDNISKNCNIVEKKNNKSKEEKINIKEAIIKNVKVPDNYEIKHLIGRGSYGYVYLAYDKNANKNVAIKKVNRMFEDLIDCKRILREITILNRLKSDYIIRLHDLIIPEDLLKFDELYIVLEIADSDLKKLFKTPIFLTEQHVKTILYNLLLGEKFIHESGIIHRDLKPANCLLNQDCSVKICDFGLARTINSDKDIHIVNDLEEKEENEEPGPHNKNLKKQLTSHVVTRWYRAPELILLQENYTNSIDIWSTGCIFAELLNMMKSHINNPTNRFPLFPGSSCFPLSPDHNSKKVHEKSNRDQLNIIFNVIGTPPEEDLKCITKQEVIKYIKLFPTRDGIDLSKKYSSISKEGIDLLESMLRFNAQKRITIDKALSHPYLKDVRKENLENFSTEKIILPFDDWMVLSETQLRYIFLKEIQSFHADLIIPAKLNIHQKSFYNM
The experiment in a line: Final concentrations were 1 uM ATP, 0.5 mM DTT, 1 mM MgCl2, 0.5 mg/mL BSA, and 10 ug/ml MAP2 in a buffer of 50 mM HEPES (pH 7.0). 0.5 mg/mL histone III-S served as the substrate (13); 100 uM AMP-PNP, an ATP analog, was used as a control inhibitor. Incubation time was 4 hours.

The target in experiment [2] is T2, Putative uncharacterized protein pk7 (Plasmodium falciparum, UniProt O96214).
T2 sequence (O96214 whole entry): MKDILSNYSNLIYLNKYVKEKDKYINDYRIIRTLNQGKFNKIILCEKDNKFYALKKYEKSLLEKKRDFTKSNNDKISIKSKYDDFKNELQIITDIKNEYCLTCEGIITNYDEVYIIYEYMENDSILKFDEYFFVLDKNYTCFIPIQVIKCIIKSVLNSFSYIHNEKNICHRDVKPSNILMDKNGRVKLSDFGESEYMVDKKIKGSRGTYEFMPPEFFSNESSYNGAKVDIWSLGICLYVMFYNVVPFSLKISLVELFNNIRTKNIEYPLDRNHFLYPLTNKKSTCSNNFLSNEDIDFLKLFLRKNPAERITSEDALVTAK
The experiment in a line: Final concentrations were 1 uM ATP, 2 mM DTT, 20 mM MgCl2, 2 mM MnCl2, 0.01% BSA, and 6 ug/ml PK7, in a buffer of 20 mM Tris-HCl (pH 7.5). The enzyme itself was the only substrate present (since autophosphorylation occurs); 100 uM 1NA-PP1 was used as a control inhibitor. Incubation time was 3 hours.

The target in another experiment is T3, Proline--tRNA ligase (Plasmodium falciparum (isolate 3D7), UniProt Q8I5R7).
T3 sequence (Q8I5R7 whole entry): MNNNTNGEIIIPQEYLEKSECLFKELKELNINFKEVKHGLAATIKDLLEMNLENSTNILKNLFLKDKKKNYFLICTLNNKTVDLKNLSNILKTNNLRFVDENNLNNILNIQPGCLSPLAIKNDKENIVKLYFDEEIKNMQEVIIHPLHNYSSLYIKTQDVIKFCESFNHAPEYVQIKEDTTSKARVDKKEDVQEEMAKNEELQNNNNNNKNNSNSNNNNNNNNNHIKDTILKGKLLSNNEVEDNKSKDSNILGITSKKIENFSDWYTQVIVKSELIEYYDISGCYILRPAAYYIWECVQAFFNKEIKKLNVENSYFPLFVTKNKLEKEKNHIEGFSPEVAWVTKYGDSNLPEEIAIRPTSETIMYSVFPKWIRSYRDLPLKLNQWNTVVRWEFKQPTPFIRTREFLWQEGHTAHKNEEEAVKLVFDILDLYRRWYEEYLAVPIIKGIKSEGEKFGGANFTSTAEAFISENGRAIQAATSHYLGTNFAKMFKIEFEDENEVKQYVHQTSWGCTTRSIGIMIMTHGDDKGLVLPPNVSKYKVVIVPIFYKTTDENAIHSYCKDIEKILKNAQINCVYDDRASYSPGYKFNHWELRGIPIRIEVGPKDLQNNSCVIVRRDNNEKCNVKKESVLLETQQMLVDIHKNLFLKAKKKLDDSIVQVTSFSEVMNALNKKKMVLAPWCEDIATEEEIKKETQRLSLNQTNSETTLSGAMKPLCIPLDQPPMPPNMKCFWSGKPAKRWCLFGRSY
Put plainly: MMV: ProRS recombinant Plasmodium falciparum Prolyl-tRNA-synthetase, assay with yeast tRNA, ATP, and proline and 3 uM MMV malaria box compound, assay read out with kinase glo as % inhibition. (In general: In Kinase-Glo more light means more ATP remaining.)

The target of experiment [3] is T4, Cdk-related protein kinase 6 (Plasmodium falciparum, UniProt O77239).
T4 sequence (O77239 whole entry): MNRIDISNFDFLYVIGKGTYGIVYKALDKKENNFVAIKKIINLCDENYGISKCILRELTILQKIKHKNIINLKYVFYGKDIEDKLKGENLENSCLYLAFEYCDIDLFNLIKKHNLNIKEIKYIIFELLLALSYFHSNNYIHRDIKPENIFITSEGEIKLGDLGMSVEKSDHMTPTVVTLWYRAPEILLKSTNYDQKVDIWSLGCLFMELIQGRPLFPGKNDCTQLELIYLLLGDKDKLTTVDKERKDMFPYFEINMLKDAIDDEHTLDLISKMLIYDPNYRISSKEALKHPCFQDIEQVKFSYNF
Put plainly: Final concentrations were 1.5 uM ATP, 5 mM MnCl2, and 15 ug/ml PK6 in a buffer of 100 mM Tris-HCl (pH 7.5). 50 ug/mL MBP was provided as the substrate; 10 uM staurosporine was used as a control inhibitor. Incubation time was 3 hours and 40 minutes.The catalytic activity of each kinase was considered proportional to ATP consumed, as determined from measurements of residual [ATP] with the luciferase-based reagent Kinase-Glo (Promega) following incubation. Luminescence (proportional to residual [ATP]) was measured on the plate readers FLx800 (BioTek Instruments, Winooski, VT, USA) and MicroBeta2.

Experiment [4] deals with T5, Calcium-dependent protein kinase 4 (Plasmodium falciparum (isolate 3D7), UniProt Q8IBS5).
T5 sequence (Q8IBS5 whole entry): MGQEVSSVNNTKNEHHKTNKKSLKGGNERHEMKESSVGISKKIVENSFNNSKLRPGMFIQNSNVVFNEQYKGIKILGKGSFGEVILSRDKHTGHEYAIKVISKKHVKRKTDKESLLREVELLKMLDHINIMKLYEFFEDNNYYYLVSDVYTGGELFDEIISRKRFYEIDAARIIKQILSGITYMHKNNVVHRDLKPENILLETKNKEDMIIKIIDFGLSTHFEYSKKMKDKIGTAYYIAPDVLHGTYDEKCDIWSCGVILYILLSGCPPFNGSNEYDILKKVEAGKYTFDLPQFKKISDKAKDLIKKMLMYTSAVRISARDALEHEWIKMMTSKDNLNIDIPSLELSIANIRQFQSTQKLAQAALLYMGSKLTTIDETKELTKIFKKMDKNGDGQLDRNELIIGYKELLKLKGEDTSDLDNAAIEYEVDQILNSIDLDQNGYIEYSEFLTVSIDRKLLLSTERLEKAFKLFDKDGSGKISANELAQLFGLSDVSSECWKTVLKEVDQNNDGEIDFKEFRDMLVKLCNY
Put plainly: MMV: CDPK4 Protein kinase inhibition assay using recombinant PfCDPK4, syntide2 peptide substrate, ATP and KinaseGlo to measure % inhibition at 1 uM MMV box compound.

The target in another experiment is Lysine--tRNA ligase (Plasmodium falciparum (isolate 3D7), UniProt Q8IDJ8). Put plainly: MMV: KRS recombinant Plasmodium falciparum Lysyl-tRNA-synthetase, assay with yeast tRNA, ATP, and lysine and 3 uM MMV malaria box compound, assay read out with kinase glo as % inhibition.
The target of experiment [5] is Calcium-dependent protein kinase 1 (Plasmodium falciparum, UniProt P62344). Put plainly: MMV: CDPK1 Protein kinase inhibition assay using recombinant PfCDPK1, syntide 2 peptide substrate, ATP and KinaseGlo to measure % inhibition at 1 uM MMV box compound.

The term IC50 denotes the midpoint of a concentration-inhibition curve.

Sequence of Calcium-dependent protein kinase 1 (P62344 whole entry): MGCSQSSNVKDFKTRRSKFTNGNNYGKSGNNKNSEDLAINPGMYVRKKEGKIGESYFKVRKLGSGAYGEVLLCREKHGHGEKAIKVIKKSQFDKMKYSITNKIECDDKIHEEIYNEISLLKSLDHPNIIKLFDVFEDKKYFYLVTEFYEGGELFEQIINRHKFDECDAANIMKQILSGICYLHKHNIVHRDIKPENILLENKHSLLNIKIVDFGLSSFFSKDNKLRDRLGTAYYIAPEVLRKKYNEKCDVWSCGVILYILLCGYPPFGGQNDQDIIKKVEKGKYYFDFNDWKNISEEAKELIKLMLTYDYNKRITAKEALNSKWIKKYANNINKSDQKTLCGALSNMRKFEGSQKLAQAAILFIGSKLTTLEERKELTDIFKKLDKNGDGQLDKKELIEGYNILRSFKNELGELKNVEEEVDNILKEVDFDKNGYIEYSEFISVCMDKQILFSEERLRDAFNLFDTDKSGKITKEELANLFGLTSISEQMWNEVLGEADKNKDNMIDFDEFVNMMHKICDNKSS
Sequence of Lysine--tRNA ligase (Q8IDJ8 whole entry): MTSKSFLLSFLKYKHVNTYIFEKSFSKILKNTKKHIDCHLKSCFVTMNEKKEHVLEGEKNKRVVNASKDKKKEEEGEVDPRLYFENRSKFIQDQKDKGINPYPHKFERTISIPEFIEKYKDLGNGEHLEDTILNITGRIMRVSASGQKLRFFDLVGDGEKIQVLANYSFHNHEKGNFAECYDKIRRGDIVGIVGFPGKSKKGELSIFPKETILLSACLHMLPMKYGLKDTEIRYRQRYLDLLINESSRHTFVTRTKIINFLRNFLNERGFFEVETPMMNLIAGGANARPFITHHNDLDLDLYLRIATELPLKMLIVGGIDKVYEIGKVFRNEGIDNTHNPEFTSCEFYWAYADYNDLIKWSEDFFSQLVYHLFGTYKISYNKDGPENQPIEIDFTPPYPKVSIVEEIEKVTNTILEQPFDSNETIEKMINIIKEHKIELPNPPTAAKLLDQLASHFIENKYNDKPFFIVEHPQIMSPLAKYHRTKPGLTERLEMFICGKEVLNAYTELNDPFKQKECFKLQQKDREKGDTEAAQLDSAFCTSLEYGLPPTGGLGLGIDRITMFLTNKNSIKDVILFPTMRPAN

Turning to `CCCCOC(=O)c1ccc(Nc2cc(C)nc3ccc(OC)cc23)cc1`, the IC50 in experiment [1] was over 1000 nM; in experiment [2] it was over 1000 nM; on Proline--tRNA ligase, over 2500 nM; in experiment [3] it was over 1000 nM; in experiment [4] it was over 1000 nM; at Lysine--tRNA ligase it was over 2500 nM. Further, the 50% inhibitory concentration (IC50) in experiment [5] is over 1000 nM.

Consider `CCC1(C)CC(CCNCc2ccccc2O)(c2ccc(C)cc2)CCO1` (stereo not drawn), for which the IC50 in experiment [1] is over 1000 nM; in experiment [2], over 1000 nM; on Proline--tRNA ligase, over 2500 nM; in experiment [3] it was over 1000 nM; in experiment [4], over 1000 nM; on Lysine--tRNA ligase, over 2500 nM. Further, the half-maximal inhibitory concentration (IC50) in experiment [5] is over 1000 nM.

For the compound `COc1cc(CNCCc2ccc(Cl)cc2)cc(OC)c1O`, the IC50 was over 1000 nM in experiment [1]; over 1000 nM in experiment [2]; over 2500 nM on Proline--tRNA ligase; over 1000 nM in experiment [3]; over 1000 nM in experiment [4]; over 2500 nM at Lysine--tRNA ligase. The 50% inhibitory concentration (IC50) in experiment [5] was over 1000 nM.

As for `CCCN(CCC)CCCNC(=O)c1cc2c(-c3ccc(OC)c(OC)c3)nn(C)c2s1`, the IC50 was over 1000 nM in experiment [1]; over 1000 nM in experiment [2]; over 2500 nM at Proline--tRNA ligase; over 1000 nM in experiment [3]; over 1000 nM in experiment [4]; over 2500 nM at Lysine--tRNA ligase. The IC50 in experiment [5] was over 1000 nM.

In the case of `CC(=O)Nc1nnc(SCc2c(C)cc(C(C)(C)C)cc2C)s1`, the half-inhibitory concentration (IC50) is over 1000 nM in experiment [1]; over 1000 nM in experiment [2]; over 2500 nM on Proline--tRNA ligase; over 1000 nM in experiment [3]; over 1000 nM in experiment [4]; over 2500 nM at Lysine--tRNA ligase. Moreover, the IC50 in experiment [5] is over 1000 nM.

For the compound `Cc1ccc(N2C3c4ccccc4N(S(=O)(=O)c4ccc(C)cc4)C2c2ccccc2N3S(=O)(=O)c2ccc(C)cc2)cc1`, the IC50 in experiment [1] was over 1000 nM; in experiment [2], over 1000 nM; at Proline--tRNA ligase, over 2500 nM; in experiment [3], over 1000 nM; in experiment [4], over 1000 nM; at Lysine--tRNA ligase, over 2500 nM. Further, the concentration for half-maximal inhibition (IC50) in experiment [5] is over 1000 nM.

On to `CC1CCCCN1CCCNC(=O)c1ccc2c(c1)sc1nc(-c3ccc(F)cc3)cn12` (stereo not drawn), for which the 50% inhibitory concentration (IC50) in experiment [1] is over 1000 nM; in experiment [2] it was over 1000 nM; at Proline--tRNA ligase it was over 2500 nM; in experiment [3], over 1000 nM; in experiment [4] it was over 1000 nM; on Lysine--tRNA ligase, over 2500 nM. Also, in experiment [5], the IC50 is over 1000 nM.

With `CCN1CCN(c2cc(C)c3cc(NC(=O)c4ccc(OC)c(OC)c4)ccc3n2)CC1`, the IC50 was over 1000 nM in experiment [1]; over 1000 nM in experiment [2]; over 2500 nM on Proline--tRNA ligase; over 1000 nM in experiment [3]; over 1000 nM in experiment [4]; over 2500 nM on Lysine--tRNA ligase. Also, the IC50 in experiment [5] is over 1000 nM.

As for `CCn1c(CN2CCN(Cc3ccccc3)CC2)nc2cc(NC(=O)c3cccs3)ccc21`, the half-inhibitory concentration (IC50) is over 1000 nM in experiment [1]; over 1000 nM in experiment [2]; over 2500 nM on Proline--tRNA ligase; over 1000 nM in experiment [3]; over 1000 nM in experiment [4]; over 2500 nM on Lysine--tRNA ligase. In experiment [5], the half-inhibitory concentration (IC50) was over 1000 nM.

As to `Cc1ccc(-c2nc3ccccc3o2)cc1NCc1cc(Cc2ccccc2)ccc1O`, the half-maximal inhibitory concentration (IC50) in experiment [1] was over 1000 nM; in experiment [2] it was over 1000 nM; on Proline--tRNA ligase, over 2500 nM; in experiment [3] it was over 1000 nM; in experiment [4], over 1000 nM; on Lysine--tRNA ligase, over 2500 nM. In experiment [5], the IC50 is over 1000 nM.

With `O=c1c2c([nH]c3ccccc13)CCCC2`, the 50% inhibitory concentration (IC50) in experiment [1] was over 1000 nM; in experiment [2] it was over 1000 nM; on Proline--tRNA ligase, over 2500 nM; in experiment [3], over 1000 nM; in experiment [4] it was over 1000 nM; at Lysine--tRNA ligase, over 2500 nM. The 50% inhibitory concentration (IC50) in experiment [5] was over 1000 nM.

As for `COc1cccc(Nc2nc(NCCO)c3ccccc3n2)c1`, the IC50 was over 1000 nM in experiment [1]; over 1000 nM in experiment [2]; over 2500 nM at Proline--tRNA ligase; over 1000 nM in experiment [3]; over 1000 nM in experiment [4]; over 2500 nM on Lysine--tRNA ligase. Besides, in experiment [5], the IC50 is over 1000 nM.

`CCc1c(C)c(=N)c2ccccc2n1C`: the half-inhibitory concentration (IC50) is over 1000 nM in experiment [1]; over 1000 nM in experiment [2]; over 2500 nM on Proline--tRNA ligase; over 1000 nM in experiment [3]; over 1000 nM in experiment [4]; over 2500 nM at Lysine--tRNA ligase. In addition, in experiment [5], the IC50 was over 1000 nM.

Take `COc1ccc(-n2ccnc2SCC(=O)Nc2cc(C)ccc2C)c(OC)c1`: the half-maximal inhibitory concentration (IC50) in experiment [1] was over 1000 nM; in experiment [2] it was over 1000 nM; on Proline--tRNA ligase, over 2500 nM; in experiment [3], over 1000 nM; in experiment [4], over 1000 nM; at Lysine--tRNA ligase, over 2500 nM. Besides, the IC50 in experiment [5] is over 1000 nM.

(Values after ChEMBL document CHEMBL3301562, “MMV Box screening against Plasmodium falciparum protein kinases and aminoacyl tRNA synthetases”.)
